Laboratory results reported in ChEMBL document CHEMBL1129081, “New neplanocin analogues. 7. Synthesis and antiviral activity of 2-halo derivatives of neplanocin A” (J Med Chem, 1996).
In brackets after ≈: the same amount, converted by molar mass.

What was measured:
MOLT-4 = experiment: Antiviral and cytostatic effects againstTK-VZV virus expressed in MOLT-4 cells; format: functional, cell-based; settings: Homo sapiens
HEL [1] = experiment: Antiviral and cytostatic effects against CMV (AD-169) virus expressed in HEL cells; format: functional, cell-based; settings: Homo sapiens
HeLa [2] = experiment: Antiviral and cytostatic effects againstTK-VZV virus expressed in Hela cells; format: functional, cell-based; settings: Homo sapiens
E6SM [3] = experiment: Antiviral and cytostatic effects against VV virus expressed in E6SM cells; format: functional, cell-based; settings: Homo sapiens
HEL [4] = experiment: Antiviral and cytostatic effects against VZV(Oka,YS) virus expressed in HEL cells; format: functional, cell-based; settings: Homo sapiens
HeLa [5] = experiment: Antiviral and cytostatic effects against VSV virus expressed in Hela cells; format: functional, cell-based; settings: Homo sapiens
HEL [6] = experiment: Antiviral and cytostatic effects againstTK-VZV virus expressed in HEL cells; format: functional, cell-based; settings: Homo sapiens
Vero [7] = experiment: Antiviral and cytostatic effects against Parainfluenza-3 virus expressed in Vero cells; format: functional, cell-based; settings: Chlorocebus sabaeus
Measles morbillivirus = experiment: Inhibitory concentration required to reduce virus Plaque formation (measles); format: functional, organism-based
E6SM [8] = experiment: Antiviral and cytostatic effects against CMV (Davis) virus expressed in […]; format: functional, cell-based; settings: Homo sapiens
Vero [9] = experiment: Antiviral and cytostatic effects against Reo-1 virus expressed in Vero cells; format: functional, cell-based; settings: Chlorocebus sabaeus
Vero [10] = experiment: Antiviral and cytostatic effects againstTK-VZV virus expressed in Vero cells; format: functional, cell-based; settings: Chlorocebus sabaeus
E6SM [11] = experiment: Antiviral and cytostatic effects against TK HSV-1( B2006) virus expressed in E6SM cells; format: functional, cell-based; settings: Homo sapiens
E6SM [12] = experiment: Antiviral and cytostatic effects against VSV virus expressed in E6SM cells; format: functional, cell-based; settings: Homo sapiens
HeLa [13] = experiment: Antiviral and cytostatic effects against Polio-1 virus expressed in Hela cells; format: functional, cell-based; settings: Homo sapiens
[14] = test system: Vesicular stomatitis virus; experiment: Inhibitory concentration required to reduce virus -induced cytopathicity (VSV); format: functional, organism-based
E6SM [15] = experiment: Antiviral and cytostatic effects againstTK-VZV virus expressed in E6SM cells; format: functional, cell-based; settings: Homo sapiens
Vero [16] = experiment: Antiviral and cytostatic effects against forest virus expressed in Vero cells; format: functional, cell-based; settings: Chlorocebus sabaeus
CCRF-CEM = experiment: Antiviral and cytostatic effects againstTK-VZV virus expressed in CEM cells; format: functional, cell-based; settings: Homo sapiens
E6SM [17] = experiment: Antiviral and cytostatic effects against Hsv-1(KOS) virus expressed in E6SM cells; format: functional, cell-based; settings: Homo sapiens
HeLa [18] = experiment: Antiviral and cytostatic effects against Coxsackie B4 virus expressed in HeLa cells; format: functional, cell-based; settings: Homo sapiens
L1210 = experiment: Antiviral and cytostatic effects againstTK-VZV virus expressed in L1210 cells; format: functional, cell-based; settings: Mus musculus
FM3A = experiment: Antiviral and cytostatic effects againstTK-VZV virus expressed in FM3A cells; format: functional, cell-based; settings: Mus musculus
HEL [19] = experiment: Antiviral and cytostatic effects against TK-VZV virus expressed in HEL cells; format: functional, cell-based; settings: Homo sapiens
Vero [20] = experiment: Cytotoxic concentration required to reduce the number of Vero cells by 50%; format: cell-based; settings: Chlorocebus sabaeus
Mumps virus = experiment: Inhibitory concentration required to reduce virus Plaque formation (mumps); format: functional, organism-based; settings: Mumps orthorubulavirus
E6SM [21] = experiment: Antiviral and cytostatic effects against Hsv-2(G) virus expressed in E6SM cells; format: functional, cell-based; settings: Homo sapiens
Vero [22] = experiment: Antiviral and cytostatic effects against Junin virus expressed in Vero cells; format: functional, cell-based; settings: Chlorocebus sabaeus
Vero [23] = experiment: Antiviral and cytostatic effects against Sindbis virus expressed in Vero cells; format: functional, cell-based; settings: Chlorocebus sabaeus
Vero [24] = experiment: Antiviral and cytostatic effects against Tacaribe virus expressed in Vero cells; format: functional, cell-based; settings: Chlorocebus sabaeus

Nc1nc(F)nc2c1ncn2[C@@H]1C=C(CO)[C@@H](O)[C@H]1O was tested, and the IC50 (MOLT-4) was 0.5 µg/mL (≈ 1.78 µM), the IC50 (HEL [1]) was 1.5 µg/mL (≈ 5.33 µM) and the IC50 (HeLa [2]) was 100 µg/mL (≈ 356 µM). The IC50 (E6SM [3]) was 0.1 µg/mL (≈ 0.356 µM), the IC50 (HEL [4]) was 10 µg/mL (≈ 35.6 µM) and the IC50 (HeLa [5]) was 0.4 µg/mL (≈ 1.42 µM). The IC50 (HEL [6]) was 2 µg/mL (≈ 7.11 µM), the IC50 (Vero [7]) was 2 µg/mL (≈ 7.11 µM) and the IC50 (Measles morbillivirus) was 0.03 µg/mL (≈ 0.107 µM). For the same compound, the IC50 (E6SM [8]) was over 5 µg/mL, the IC50 (Vero [9]) was 0.7 µg/mL (≈ 2.49 µM) and the IC50 (Vero [10]) was 100 µg/mL (≈ 356 µM). The IC50 (E6SM [11]) was over 40 µg/mL, the IC50 (E6SM [12]) was 1 µg/mL (≈ 3.56 µM) and the IC50 (HeLa [13]) was over 40 µg/mL. For the same compound, the IC50 [14] was 0.25 µg/mL (≈ 0.889 µM), the IC50 (E6SM [15]) was 40 µg/mL (≈ 142 µM) and the IC50 (Vero [16]) was over 100 µg/mL. It also gave an IC50 (CCRF-CEM) of 1.75 µg/mL (≈ 6.22 µM), an IC50 (E6SM [17]) of over 40 µg/mL and an IC50 (HeLa [18]) of over 100 µg/mL. It also gave an IC50 (L1210) of 0.25 µg/mL (≈ 0.889 µM), an IC50 (FM3A) of 0.19 µg/mL (≈ 0.676 µM) and an IC50 (HEL [19]) of 7 µg/mL (≈ 24.9 µM). For the same compound, the IC50 (Vero [20]) was over 200 µg/mL, the IC50 (Mumps virus) was 1.2 µg/mL (≈ 4.27 µM) and the IC50 (E6SM [21]) was over 40 µg/mL. For the same compound, the IC50 (Vero [22]) was 0.6 µg/mL (≈ 2.13 µM), the IC50 (Vero [23]) was 1 µg/mL (≈ 3.56 µM) and the IC50 (Vero [24]) was 0.7 µg/mL (≈ 2.49 µM).

Nc1ncnc2c1ncn2[C@@H]1C=C(CO)[C@@H](O)[C@H]1O [NEOPLANOCIN A] showed an IC50 (MOLT-4) of 2.34 µg/mL (≈ 8.89 µM), an IC50 (HeLa [2]) of 40 µg/mL (≈ 152 µM) and an IC50 (E6SM [3]) of 0.7 µg/mL (≈ 2.66 µM). The IC50 (HEL [4]) was 10 µg/mL (≈ 38 µM), the IC50 (HeLa [5]) was 2 µg/mL (≈ 7.6 µM) and the IC50 (HEL [6]) was over 20 µg/mL. The IC50 (Vero [7]) was 2 µg/mL (≈ 7.6 µM), the IC50 (Measles morbillivirus) was 0.1 µg/mL (≈ 0.38 µM) and the IC50 (E6SM [8]) was 0.4 µg/mL (≈ 1.52 µM). The IC50 (Vero [9]) was 0.7 µg/mL (≈ 2.66 µM), the IC50 (Vero [10]) was 40 µg/mL (≈ 152 µM) and the IC50 (E6SM [11]) was 20 µg/mL (≈ 76 µM). For the same compound, the IC50 (E6SM [12]) was 7 µg/mL (≈ 26.6 µM), the IC50 (HeLa [13]) was over 40 µg/mL and the IC50 [14] was 0.25 µg/mL (≈ 0.95 µM). For the same compound, the IC50 (E6SM [15]) was 70 µg/mL (≈ 266 µM), the IC50 (Vero [16]) was over 40 µg/mL and the IC50 (CCRF-CEM) was 1.12 µg/mL (≈ 4.25 µM). For the same compound, the IC50 (E6SM [17]) was 70 µg/mL (≈ 266 µM), the IC50 (HeLa [18]) was over 40 µg/mL and the IC50 (L1210) was 0.027 µg/mL (≈ 0.103 µM). It also gave an IC50 (FM3A) of 0.022 µg/mL (≈ 0.0836 µM), an IC50 (HEL [19]) of 9 µg/mL (≈ 34.2 µM) and an IC50 (Vero [20]) of 155 µg/mL (≈ 589 µM). It also gave an IC50 (Mumps virus) of 0.11 µg/mL (≈ 0.418 µM), an IC50 (E6SM [21]) of over 40 µg/mL and an IC50 (Vero [22]) of 0.5 µg/mL (≈ 1.9 µM). For the same compound, the IC50 (Vero [23]) was 7 µg/mL (≈ 26.6 µM) and the IC50 (Vero [24]) was 1.5 µg/mL (≈ 5.7 µM).

With C[C@H](O)C1=C[C@@H](n2cnc3c(N)ncnc32)[C@H](O)[C@@H]1O the IC50 (Measles morbillivirus) was 0.09 µg/mL (≈ 0.325 µM), the IC50 [14] was 0.25 µg/mL (≈ 0.902 µM) and the IC50 (Vero [20]) was over 200 µg/mL. For the same compound, the IC50 (Mumps virus) was 0.19 µg/mL (≈ 0.685 µM).

With Nc1nc(F)nc2c1ncn2[C@@H]1C=C[C@@H](O)[C@H]1O the IC50 (Measles morbillivirus) was over 25 µg/mL, the IC50 (Vero [20]) was over 200 µg/mL and the IC50 (Mumps virus) was 21 µg/mL (≈ 83.6 µM).

Nc1ncnc2c1ncn2[C@@H]1C=C[C@@H](O)[C@H]1O gave an IC50 (Measles morbillivirus) of 0.47 µg/mL (≈ 2.02 µM), an IC50 [14] of 1 µg/mL (≈ 4.29 µM) and an IC50 (Vero [20]) of over 200 µg/mL. It also gave an IC50 (Mumps virus) of 1.1 µg/mL (≈ 4.72 µM).

Compound C[C@H](O)C1=C[C@@H](n2cnc3c(N)nc(F)nc32)[C@H](O)[C@@H]1O has an IC50 (Measles morbillivirus) of over 25 µg/mL, an IC50 [14] of 16 µg/mL (≈ 54.2 µM) and an IC50 (Vero [20]) of over 200 µg/mL. It also gave an IC50 (Mumps virus) of 7 µg/mL (≈ 23.7 µM).

Nc1nc(Cl)nc2c1ncn2[C@@H]1C=C(CO)[C@@H](O)[C@H]1O gave an IC50 (Measles morbillivirus) of 29 µg/mL (≈ 97.4 µM), an IC50 [14] of 63 µg/mL (≈ 212 µM) and an IC50 (Vero [20]) of over 200 µg/mL. For the same compound, the IC50 (Mumps virus) was over 25 µg/mL.

Nc1nc(Cl)nc2c1ncn2[C@@H]1C=C[C@@H](O)[C@H]1O showed an IC50 (Measles morbillivirus) of over 25 µg/mL, an IC50 (Vero [20]) of over 200 µg/mL and an IC50 (Mumps virus) of over 25 µg/mL.
